Laboratory results taken from patent US9775890B2, “Factor Xa inhibitor used with liver-derived progenitor cells” (UNIVERSITÉ CATHOLIQUE DE LOUVAIN, priority 2012, dated 2017).
Structures can show the parent of a compound that is named as a salt. Where two headings read alike, the source gives them in different places.

What was measured:
[1] = tested on: cells with PCA; experiment: Analogous thromboelastometry experiments with different direct factor Xa inhibitors plus direct thrombin inhibitor; type: cell-based; conditions: present tense
Method: (§1) Measurements were performed on a ROTEM® delta analyser (Pentapharm, Munich, Germany). ROTEM® assesses the kinetics and quality of clot formation and clot lysis in real-time. The clotting time (CT) is defined as the period of time from the start of the analysis until the start of clot formation, normally until the 2 mm amplitude is reached. The clot formation time is defined as the period until the 20 mm amplitude is reached. The alpha angle is defined as the angle between the centre line and a tangent to the curve through the 2 mm amplitude point, which is the end of the CT. The maximum amplitude of the curve is defined as the maximum clot firmness. The maximum of lysis represents the maximum fibrinolysis detected during the measurement. We focused on CT.
(§2) Briefly, after a short rest period, 300 μl of whole blood was pipetted into a cup pre-warmed at 37° C. Suspended cells were subsequently added to whole blood (5×10exp5 cells if no specification). Twenty μl of trigger reagent containing tissue factor (TF) (Innovin, Siemens, Marburg, Germany. Final dilution 1:17000/0.35 pM) diluted in Owren buffer (Siemens, Marburg, Germany) was then added to the cell-blood mixture followed by the necessary addition of 20 μl of 0.2 M CaCl2. After calcium addition, measurements started automatically. The procoagulant activity (PCA) of cells was also determined without addition of Innovin.
For modulation of PCA assays, cells were suspended in albumin 5% with or without non-fractionated heparin (Heparin Leo®, Leo). […] Dose extrapolation was based on circulating blood volume according to weight (70 ml/kg).

[2] = tested on: hALPCs; experiment: Thromboelastometry (ROTEM) clotting time: modulation of procoagulant activity (PCA) of hALPCs in whole blood; type: cell-based, human; conditions: for Clotting time (CT) of whole blood with hALPCs in presence of anticoagulant drug: ROTEM, 300 μl citrated whole blood, 5×10exp5 hALPCs, added TF, heparin 10 U/mL in cell suspension, hirudin 5.7 μg/ml; for Control of hALPCs PCA by thrombin inhibitor, increased dose (2× or 5×): FIGS. 14 and 15, dose 2× or 5×
Method: as §1
as §2, with “Innovin. To ascertain the role of TF in this coagulation model, cells were pre-incubated at room temperature for 10 minutes with either 0.2 mg/mL mAb anti-human TF IgG1 (American Diagnostica) or 0.2 mg/mL mAb mouse IgG1 (clone11711.11; RnD Systems, Abingdon, United Kingdom) before extensive washing in albumin 5% and thromboelastometry assay.” for “Innovin.”
For modulation of PCA assays, cells were suspended in albumin 5% with or without non-fractionated heparin (Heparin Leo®, Leo). The following were then added to blood or plasma: rivaroxaban (Xarelto®, Bayer Schering) at a concentration of 1 μg/ml following published data (Samama et al. (2010), Thromb Haemost, 103(4):815-825), hirudin (Refludan®, Celgene Europe Limited) at a concentration of 5.7 μg/ml (clinical dose extrapolation 0.4 mg/kg), bivalirudin (Angiox®, The Medicines Company) at a concentration of 10.7 μg/ml (clinical dose extrapolation 0.75 mg/kg). Dose extrapolation was based on circulating blood volume according to weight (70 ml/kg).

[3] = tested on: hepatocytes; experiment: Thromboelastometry (ROTEM): modulation of PCA of hepatocytes in whole blood; type: cell-based, human
Method: as §1
as §2, with “Innovin. […]” for “Innovin.”

[4] = tested on: citrated whole blood; experiment: Thromboelastometry (ROTEM) of control blood in absence of cells with anticoagulant drug; parameters: species or system human; conditions: no cells
Method: as §1
as §2, with “Innovin. […]” for “Innovin.”

CC(=N)N1CC[C@H](Oc2ccc([C@H](Cc3ccc4ccc(C(=N)N)cc4c3)C(=O)O)cc2)C1 [DX9065a]
Modulation of PCA of cells by concomitant use of the direct factor Xa inhibitor with a direct thrombin inhibitor (hirudin or bivalirudin) [1]: able to modulate PCA

C[C@@H](C(=O)N1CCOCC1)N1CC[C@H](NS(=O)(=O)/C=C/c2ccc(Cl)s2)C1=O [GW813893]
Modulation of PCA of cells by concomitant use of the direct factor Xa inhibitor with a direct thrombin inhibitor (hirudin or bivalirudin) [1]: able to modulate PCA

N=C(N)N1CCc2ccc(OCC3(C(=O)O)CCN(c4ccncc4)CC3)cc2C1 [JTV-803]
Modulation of PCA of cells by concomitant use of the direct factor Xa inhibitor with a direct thrombin inhibitor (hirudin or bivalirudin) [1]: able to modulate PCA

CC(=N)N1CCC(c2ccc(NC(=O)CN(Cc3cccc(OCC(=O)O)c3)c3cccc(C(=N)N)c3)cc2)CC1 [KFA-144]
Modulation of PCA of cells by concomitant use of the direct factor Xa inhibitor with a direct thrombin inhibitor (hirudin or bivalirudin) [1]: able to modulate PCA

CN1CCC(N2CCN(C(=O)[C@H](NC(=O)c3ccc4cc[nH]c4c3)c3ccccc3)CC2)CC1 [LY517717]
Modulation of PCA of cells by concomitant use of the direct factor Xa inhibitor with a direct thrombin inhibitor (hirudin or bivalirudin) [1]: able to modulate PCA

COc1ccccc1N1CCN(C(=O)CNC(=O)C(Nc2cccc(C(=N)N)c2)c2ccccc2O[C@@H]2O[C@H](CO)[C@@H](O)[C@H](O)[C@H]2O)CC1 (stereo partly shown) [MCM-09]
Modulation of PCA of cells by concomitant use of the direct factor Xa inhibitor with a direct thrombin inhibitor (hirudin or bivalirudin) [1]: able to modulate PCA

O=C1CN(S(=O)(=O)/C=C/c2ccc(Cl)s2)CCN1Cc1cc2cnccc2[nH]1 [RPR-209685]
Modulation of PCA of cells by concomitant use of the direct factor Xa inhibitor with a direct thrombin inhibitor (hirudin or bivalirudin) [1]: able to modulate PCA

CC(=N)N1CCC(Oc2ccc(N(Cc3ccc4ccc(C(=N)N)cc4c3)S(=O)(=O)CC(=O)O)cc2)CC1 [YM-60828]
Modulation of PCA of cells by concomitant use of the direct factor Xa inhibitor with a direct thrombin inhibitor (hirudin or bivalirudin) [1]: able to modulate PCA

COc1ccc(-n2nc(C(N)=O)c3c2C(=O)N(c2ccc(N4CCCCC4=O)cc2)CC3)cc1 [apixaban, 1-(4-methoxyphenyl)-7-oxo-6-[4-(2-oxopiperidin-1-yl)phenyl]-4,5-dihydropyrazolo[5,4-c]pyridine-3-carboxamide]
Modulation of PCA of cells by concomitant use of the direct factor Xa inhibitor with a direct thrombin inhibitor (hirudin or bivalirudin) [1]: able to modulate PCA

COc1ccc(NC(=O)c2ccc(C(=N)N(C)C)cc2)c(C(=O)Nc2ccc(Cl)cn2)c1 [betrixaban, N-(5-chloropyridin-2-yl)-2-([4-(N,N-dimethylcarbamimidoyl)benzoyl]amino)-5-methoxybenzamide]
Modulation of PCA of cells by concomitant use of the direct factor Xa inhibitor with a direct thrombin inhibitor (hirudin or bivalirudin) [1]: able to modulate PCA

COc1ccc(C(=O)Nc2cccc(O)c2NC(=O)c2ccc(N3CCCN(C)CC3)cc2)cc1 [darexaban]
Modulation of PCA of cells by concomitant use of the direct factor Xa inhibitor with a direct thrombin inhibitor (hirudin or bivalirudin) [1]: able to modulate PCA

CO[C@H]1C[C@@H](C(=O)Nc2ccc(-n3ccccc3=O)cc2F)N(C(=O)Nc2ccc(Cl)cc2)C1 [eribaxaban]
Modulation of PCA of cells by concomitant use of the direct factor Xa inhibitor with a direct thrombin inhibitor (hirudin or bivalirudin) [1]: able to modulate PCA

CO[C@H]1O[C@H](COS(=O)(=O)O)[C@@H](O[C@@H]2O[C@@H](C(=O)O)[C@@H](O[C@H]3O[C@H](COS(=O)(=O)O)[C@@H](O[C@@H]4O[C@H](C(=O)O)[C@@H](O[C@H]5O[C@H](COS(=O)(=O)O)[C@@H](O)[C@H](O)[C@H]5NS(=O)(=O)O)[C@H](O)[C@H]4O)[C@H](OS(=O)(=O)O)[C@H]3NS(=O)(=O)O)[C@H](O)[C@H]2OS(=O)(=O)O)[C@H](O)[C@H]1NS(=O)(=O)O [fondaparinux, 2-deoxy-6-O-sulfo-2-(sulfoamino)-α-D-glucopyranosyl-(1→4)-O-β-D-glucopyranuronosyl-(1→4)-O-2-deoxy-3,6-di-O-sulfo-2-(sulfoamino)-α-D-glucopyranosyl-(1→4)-O-2-O-sulfo-α-L-idopyranouronosyl-(1→4)-O-methyl-2-deoxy-6-O-sulfo-2-(sulfoamino)-α-D-glucopyranoside, decasodium salt]
Clotting time (CT) of whole blood with hALPCs in presence of anticoagulant drug ([2]; bivalirudin 10.7 μg/ml): 209.7 ± 149.7 s

O=C([C@H](O)CS(=O)(=O)c1ccc2cc(Cl)ccc2c1)N1CCC(N2CCCNC2=O)CC1 [letaxaban]
Modulation of PCA of cells by concomitant use of the direct factor Xa inhibitor with a direct thrombin inhibitor (hirudin or bivalirudin) [1]: able to modulate PCA

CN(C)Cc1nccn1-c1ccc(NC(=O)c2cc(C(F)(F)F)nn2-c2ccc3onc(N)c3c2)c(F)c1 [razaxaban]
Modulation of PCA of cells by concomitant use of the direct factor Xa inhibitor with a direct thrombin inhibitor (hirudin or bivalirudin) [1]: able to modulate PCA

O=C(NC[C@H]1CN(c2ccc(N3CCOCC3=O)cc2)C(=O)O1)c1ccc(Cl)s1 [rivaroxaban, (S)-5-chloro-N-{[2-oxo-3-[4-(3-oxomorpholin-4-yl)phenyl]oxazolidin-5-yl]methyl}thiophene-2-carboxamide]
Modulation of hALPCs PCA (in words) ([2]; ROTEM whole blood, rivaroxaban 1 μg/ml, bivalirudin 10.7 μg/ml, heparin 10 U/mL): ineffective

antistasin
Modulation of PCA of cells by concomitant use of the direct factor Xa inhibitor with a direct thrombin inhibitor (hirudin or bivalirudin) [1]: able to modulate PCA

bivalirudin
Control of hALPCs PCA by thrombin inhibitor, increased dose (2× or 5×) ([2]; ROTEM whole blood): only a partial control
Clotting time (CT) of whole blood with hALPCs in presence of anticoagulant drug ([2]; bivalirudin 10.7 μg/ml): 380.8 ± 114.7 s
Control of hepatocytes PCA (in words) ([3]; ROTEM whole blood, FIG. 6D): controlled
CT of control blood (in absence of cells) ([4]; bivalirudin 10.7 μg/ml, unit not printed at the place (other CT in sec)): 1075.0±107.2

hirudin
Control of hALPCs PCA by thrombin inhibitor, increased dose (2× or 5×) ([2]; ROTEM whole blood): only a partial control
Clotting time (CT) of whole blood with hALPCs in presence of anticoagulant drug ([2]; bivalirudin 10.7 μg/ml): 256.3 ± 11.8 s
Control of hepatocytes PCA (in words) [3]: controlled
Coagulation of blood in absence of cells (in words) ([4]; thromboelastometry stopped after 1800 sec): no measurable coagulation was observed
